How the values were obtained:
Test in all cases: AMPD Enzymatic Activity Assay
Details in all cases: pH 7.4
AMP deaminase 1 = biological target: T1, AMP deaminase 1 (Mus musculus, UniProt Q3V1D3)
T1 sequence (Q3V1D3 whole entry): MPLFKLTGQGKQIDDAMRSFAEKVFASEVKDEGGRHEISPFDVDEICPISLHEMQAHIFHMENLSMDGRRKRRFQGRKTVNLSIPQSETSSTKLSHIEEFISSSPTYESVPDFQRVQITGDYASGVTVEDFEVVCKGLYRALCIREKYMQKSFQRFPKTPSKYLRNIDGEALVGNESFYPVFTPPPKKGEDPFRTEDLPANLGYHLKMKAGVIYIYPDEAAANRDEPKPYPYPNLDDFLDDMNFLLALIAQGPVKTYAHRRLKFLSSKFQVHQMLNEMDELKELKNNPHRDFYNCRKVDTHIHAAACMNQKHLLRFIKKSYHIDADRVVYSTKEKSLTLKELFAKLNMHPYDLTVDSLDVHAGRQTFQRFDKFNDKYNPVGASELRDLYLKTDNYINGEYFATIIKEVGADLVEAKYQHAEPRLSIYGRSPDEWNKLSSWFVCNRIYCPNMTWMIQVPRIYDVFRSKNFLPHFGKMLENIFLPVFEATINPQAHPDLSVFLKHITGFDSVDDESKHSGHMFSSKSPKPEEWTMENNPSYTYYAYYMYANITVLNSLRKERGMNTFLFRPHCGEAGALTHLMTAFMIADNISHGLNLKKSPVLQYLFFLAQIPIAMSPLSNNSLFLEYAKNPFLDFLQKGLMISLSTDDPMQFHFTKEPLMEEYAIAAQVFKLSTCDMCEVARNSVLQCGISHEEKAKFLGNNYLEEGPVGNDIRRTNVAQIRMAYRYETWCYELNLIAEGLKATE
Procedure: (§1) AMPD1 was added to buffer A (50 mM HEPES, 150 mM KCl, 5 mM MgCl2, and 0.5 mMglutathione [pH 7.4]) to a concentration of 10 nM. A substrate mix consistingof 2mMNADPH, 6mMa-ketoglutarate, 8mMAMP, and 15 U GDH was prepared in buffer A. Substrate mix ([…]) was added to the plate, followed by centrifugation and incubation for 1 hr. Detection was by absorbance at 340 nm following the conversion of NADPH to NADP+. Recombinant AMPD enzyme activity assays were performed in a 384-well format using the same conditions as described above, except the assay volume was […] and the AMP concentration for the AMPD2 assay was 8 mM. Different AMPD enzyme concentrations were used to have linear reactions: hAMPD1 (4 nM), hAMPD2 (38 nM), hAMPD3 (1 nM), rAMPD1 (116 nM), rAMPD2 (53 nM), rAMPD3 (31 nM), and mAMPD1 (816 nM).

AMP deaminase 2 [1] = biological target: T2, AMP deaminase 2 (Rattus norvegicus, UniProt Q02356)
T2 sequence (Q02356 whole entry): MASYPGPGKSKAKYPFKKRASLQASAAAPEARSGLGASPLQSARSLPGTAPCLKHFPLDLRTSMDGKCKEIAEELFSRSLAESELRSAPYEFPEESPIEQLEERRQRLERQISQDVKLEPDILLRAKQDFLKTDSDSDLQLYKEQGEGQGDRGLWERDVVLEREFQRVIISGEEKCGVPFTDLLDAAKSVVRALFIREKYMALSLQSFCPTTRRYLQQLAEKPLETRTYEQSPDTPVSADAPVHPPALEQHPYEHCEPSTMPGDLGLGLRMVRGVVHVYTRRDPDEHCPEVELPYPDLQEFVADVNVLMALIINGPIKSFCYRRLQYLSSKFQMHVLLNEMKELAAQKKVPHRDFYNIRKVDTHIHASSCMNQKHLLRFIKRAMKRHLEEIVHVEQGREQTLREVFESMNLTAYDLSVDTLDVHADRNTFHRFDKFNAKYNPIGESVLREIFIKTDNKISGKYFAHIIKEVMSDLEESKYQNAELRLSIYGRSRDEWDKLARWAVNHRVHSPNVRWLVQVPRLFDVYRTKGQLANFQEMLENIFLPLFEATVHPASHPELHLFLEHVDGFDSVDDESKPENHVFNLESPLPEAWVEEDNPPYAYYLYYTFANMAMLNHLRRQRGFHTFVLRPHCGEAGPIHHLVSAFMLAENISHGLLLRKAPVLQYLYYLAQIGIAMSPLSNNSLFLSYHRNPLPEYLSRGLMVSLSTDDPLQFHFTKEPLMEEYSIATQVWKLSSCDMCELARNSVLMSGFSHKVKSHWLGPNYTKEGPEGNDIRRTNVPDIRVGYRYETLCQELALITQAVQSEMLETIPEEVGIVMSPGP
Procedure: as §1

AMP deaminase 2 [2] = biological target: T3, AMP deaminase 2 (Homo sapiens, UniProt Q01433)
T3 sequence (Q01433 whole entry): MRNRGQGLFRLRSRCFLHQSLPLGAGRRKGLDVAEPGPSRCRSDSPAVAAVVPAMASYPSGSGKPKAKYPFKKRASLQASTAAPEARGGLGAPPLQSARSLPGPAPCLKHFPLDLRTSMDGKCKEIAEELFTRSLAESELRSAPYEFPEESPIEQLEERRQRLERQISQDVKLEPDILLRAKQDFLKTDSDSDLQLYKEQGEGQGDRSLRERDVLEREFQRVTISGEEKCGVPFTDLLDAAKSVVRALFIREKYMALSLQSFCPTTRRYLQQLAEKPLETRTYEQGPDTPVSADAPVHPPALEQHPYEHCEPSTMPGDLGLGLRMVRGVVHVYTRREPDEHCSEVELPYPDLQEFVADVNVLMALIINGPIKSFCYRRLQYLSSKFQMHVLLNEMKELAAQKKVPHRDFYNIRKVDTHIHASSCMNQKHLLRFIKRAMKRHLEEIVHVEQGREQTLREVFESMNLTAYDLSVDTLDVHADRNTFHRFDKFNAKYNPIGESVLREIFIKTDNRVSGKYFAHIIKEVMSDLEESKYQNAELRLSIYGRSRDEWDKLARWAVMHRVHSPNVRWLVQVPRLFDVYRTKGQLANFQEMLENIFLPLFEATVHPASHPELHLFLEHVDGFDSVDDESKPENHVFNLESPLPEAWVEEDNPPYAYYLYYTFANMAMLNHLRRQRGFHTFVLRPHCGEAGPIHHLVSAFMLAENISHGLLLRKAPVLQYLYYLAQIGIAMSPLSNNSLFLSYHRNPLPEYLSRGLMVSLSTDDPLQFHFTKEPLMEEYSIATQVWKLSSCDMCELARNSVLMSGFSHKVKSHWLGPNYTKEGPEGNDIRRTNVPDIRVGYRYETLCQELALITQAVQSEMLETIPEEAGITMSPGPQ
Procedure: as §1

C[C@@H](NCc1ccc(-c2ccc(C(=O)O)cn2)cc1)c1cccc2ccncc12 [6-[4-({[(1R)-1-(isoquinolin-8-yl)ethyl]amino}methyl)phenyl]pyridine-3-carboxylic acid (Compound 2)]
IC50 (AMP deaminase 1): 4500 nM
IC50 (AMP deaminase 2 [1]): 32000 nM
IC50 (AMP deaminase 2 [2]): 32000 nM

C[C@H](NCc1ccc(-c2ccc(C(=O)O)cn2)cc1)c1cccc2ccncc12 [6-[4-({[(1S)-1-(isoquinolin-8-yl)ethyl]amino}methyl)phenyl]pyridine-3-carboxylic acid (Compound 3)]
IC50 (AMP deaminase 1): 24 nM
IC50 (AMP deaminase 2 [1]): 570 nM
IC50 (AMP deaminase 2 [2]): 16 nM
